Experiment: xn = mol fraction of the nth substance listed
Details: for speed of sound / mass density: Liquid; for speed of sound: Linear variable-path acoustic interferometer; for mass density: Vibrating tube method; for surface tension liquid-gas: Drop volume

Cc1ccc(C)cc1 [1,4-dimethylbenzene] + CCCCCCCCCC
Details | mass density [kg/m3] | speed of sound [m/s] | surface tension liquid-gas [mN/m]
288.15 K, x1 = 0.1092 | 742.78 | 1276.2 | –
288.15 K, x1 = 0.1984 | 750.98 | 1278.7 | –
288.15 K, x1 = 0.3105 | 762.21 | 1282.7 | –
288.15 K, x1 = 0.3427 | 765.62 | 1284.1 | –
288.15 K, x1 = 0.4919 | 782.82 | 1292.3 | –
288.15 K, x1 = 0.5438 | 789.38 | 1295.8 | –
288.15 K, x1 = 0.5995 | 796.78 | 1300.1 | –
288.15 K, x1 = 0.7293 | 815.71 | 1312.2 | –
288.15 K, x1 = 0.7829 | 824.32 | 1318.2 | –
288.15 K, x1 = 0.8993 | 844.93 | 1333.7 | –
288.15 K, x1 = 0.9499 | 854.78 | 1341.9 | –
293.15 K, x1 = 0.1092 | 739.03 | 1256.7 | –
293.15 K, x1 = 0.1984 | 747.15 | 1259 | –
293.15 K, x1 = 0.3427 | 761.75 | 1264.3 | –
293.15 K, x1 = 0.4919 | 778.88 | 1272.3 | –
293.15 K, x1 = 0.5438 | 785.41 | 1275.7 | –
293.15 K, x1 = 0.5995 | 792.78 | 1279.9 | –
293.15 K, x1 = 0.7293 | 811.62 | 1291.8 | –
293.15 K, x1 = 0.7829 | 820.21 | 1297.8 | –
293.15 K, x1 = 0.8993 | 840.73 | 1312.9 | –
293.15 K, x1 = 0.9499 | 850.54 | 1320.9 | –
293.18 K, x1 = 0.3105 | 758.36 | 1262.9 | –
298.15 K, x1 = 0.09726 | – | – | 23.21
298.15 K, x1 = 0.1092 | 735.23 | 1236.5 | –
298.15 K, x1 = 0.1984 | 743.31 | 1238.7 | –
298.15 K, x1 = 0.2 | – | – | 23.4
298.15 K, x1 = 0.2959 | – | – | 23.61
298.15 K, x1 = 0.3105 | 754.46 | 1242.7 | –
298.15 K, x1 = 0.3427 | 757.83 | 1244 | –
298.15 K, x1 = 0.4047 | – | – | 23.89
298.15 K, x1 = 0.4919 | 774.88 | 1251.8 | –
298.15 K, x1 = 0.4998 | – | – | 24.23
298.15 K, x1 = 0.5374 | – | – | 24.37
298.15 K, x1 = 0.5438 | 781.38 | 1255.3 | –
298.15 K, x1 = 0.5995 | 788.72 | 1259.3 | –
298.15 K, x1 = 0.6024 | – | – | 24.66
298.15 K, x1 = 0.6962 | – | – | 25.15
298.15 K, x1 = 0.7293 | 807.48 | 1271.1 | –
298.15 K, x1 = 0.7829 | 816.03 | 1276.9 | –
298.15 K, x1 = 0.8025 | – | – | 25.73
298.15 K, x1 = 0.8914 | – | – | 26.33
298.15 K, x1 = 0.8993 | 836.47 | 1291.9 | –
298.15 K, x1 = 0.9499 | 846.25 | 1299.8 | –
298.15 K, x1 = 0.9503 | – | – | 26.79
303.15 K, x1 = 0.1092 | 731.39 | 1216.6 | –
303.15 K, x1 = 0.1984 | 739.42 | 1218.8 | –
303.15 K, x1 = 0.3105 | 750.53 | 1222.5 | –
303.15 K, x1 = 0.3427 | 753.87 | 1223.9 | –
303.15 K, x1 = 0.4919 | 770.85 | 1231.6 | –
303.15 K, x1 = 0.5438 | 777.33 | 1235 | –
303.15 K, x1 = 0.5995 | 784.63 | 1239 | –
303.15 K, x1 = 0.7293 | 803.32 | 1250.6 | –
303.15 K, x1 = 0.7829 | 811.82 | 1256.3 | –
303.15 K, x1 = 0.8993 | 832.18 | 1271.3 | –
303.15 K, x1 = 0.9499 | 841.92 | 1278.9 | –

CCOC(=O)OCC [diethyl carbonate] + Cc1ccc(C)cc1
Details | mass density [kg/m3] | speed of sound [m/s] | surface tension liquid-gas [mN/m]
288.15 K, x1 = 0.0509 | 871.12 | 1343.5 | –
288.15 K, x1 = 0.0985 | 876.57 | 1336.8 | –
288.15 K, x1 = 0.1975 | 887.94 | 1322.8 | –
288.15 K, x1 = 0.2974 | 899.4 | 1308.7 | –
288.15 K, x1 = 0.3983 | 910.97 | 1294.6 | –
288.15 K, x1 = 0.5023 | 922.91 | 1280.2 | –
288.15 K, x1 = 0.5485 | 928.22 | 1274 | –
288.15 K, x1 = 0.5968 | 933.78 | 1267.5 | –
288.15 K, x1 = 0.6464 | 939.5 | 1261 | –
288.15 K, x1 = 0.6992 | 945.6 | 1254.2 | –
288.15 K, x1 = 0.7976 | 956.98 | 1241.8 | –
288.15 K, x1 = 0.8515 | 963.21 | 1235.1 | –
288.15 K, x1 = 0.9 | 968.83 | 1229.4 | –
288.15 K, x1 = 0.9507 | 974.69 | 1223.5 | –
293.15 K, x1 = 0.04951 | 866.58 | 1322.7 | –
293.15 K, x1 = 0.09841 | 872.13 | 1315.9 | –
293.15 K, x1 = 0.2007 | 883.74 | 1301.6 | –
293.15 K, x1 = 0.3004 | 895.04 | 1287.6 | –
293.15 K, x1 = 0.4017 | 906.52 | 1273.5 | –
293.15 K, x1 = 0.4997 | 917.64 | 1260 | –
293.15 K, x1 = 0.5976 | 928.79 | 1246.8 | –
293.15 K, x1 = 0.65 | 934.76 | 1239.9 | –
293.15 K, x1 = 0.6999 | 940.46 | 1233.4 | –
293.15 K, x1 = 0.7969 | 951.55 | 1221.2 | –
293.15 K, x1 = 0.8522 | 957.87 | 1214.5 | –
293.15 K, x1 = 0.9516 | 969.28 | 1203.1 | –
298.15 K, x1 = 0.05081 | 862.33 | 1301.4 | –
298.15 K, x1 = 0.05201 | – | – | 27.27
298.15 K, x1 = 0.09983 | – | – | 27.12
298.15 K, x1 = 0.1564 | 874.2 | 1286.7 | –
298.15 K, x1 = 0.2023 | – | – | 26.85
298.15 K, x1 = 0.2581 | 885.6 | 1272.5 | –
298.15 K, x1 = 0.3052 | 890.87 | 1265.9 | –
298.15 K, x1 = 0.3063 | – | – | 26.61
298.15 K, x1 = 0.4021 | 901.73 | 1252.4 | –
298.15 K, x1 = 0.4043 | – | – | 26.39
298.15 K, x1 = 0.4446 | – | – | 26.31
298.15 K, x1 = 0.4941 | 912.05 | 1239.7 | –
298.15 K, x1 = 0.5014 | 912.87 | 1238.7 | –
298.15 K, x1 = 0.5042 | – | – | 26.19
298.15 K, x1 = 0.5936 | – | – | 26.01
298.15 K, x1 = 0.5966 | 923.58 | 1226 | –
298.15 K, x1 = 0.6896 | 934.06 | 1213.8 | –
298.15 K, x1 = 0.7041 | – | – | 25.8
298.15 K, x1 = 0.7459 | 940.42 | 1206.7 | –
298.15 K, x1 = 0.7994 | – | – | 25.65
298.15 K, x1 = 0.8968 | – | – | 25.52
298.15 K, x1 = 0.8987 | 957.7 | 1188.4 | –
298.15 K, x1 = 0.9492 | 963.41 | 1182.6 | –
303.15 K, x1 = 0.05001 | 857.79 | 1280.6 | –
303.15 K, x1 = 0.09883 | 863.2 | 1274 | –
303.15 K, x1 = 0.1971 | 874.11 | 1260.3 | –
303.15 K, x1 = 0.3068 | 886.26 | 1245 | –
303.15 K, x1 = 0.3908 | 895.57 | 1233.2 | –
303.15 K, x1 = 0.499 | 907.57 | 1218.4 | –
303.15 K, x1 = 0.5482 | 913.03 | 1211.7 | –
303.15 K, x1 = 0.6011 | 918.91 | 1204.7 | –
303.15 K, x1 = 0.6472 | 924.05 | 1198.6 | –
303.15 K, x1 = 0.6979 | 929.7 | 1192.1 | –
303.15 K, x1 = 0.7962 | 940.68 | 1179.8 | –
303.15 K, x1 = 0.9007 | 952.41 | 1167.4 | –
303.15 K, x1 = 0.951 | 958.07 | 1161.6 | –
308.15 K, x1 = 0.09736 | 858.51 | 1253.3 | –
308.15 K, x1 = 0.2045 | 870.25 | 1238.5 | –
308.15 K, x1 = 0.2963 | 880.29 | 1225.7 | –
308.15 K, x1 = 0.4046 | 892.15 | 1210.4 | –
308.15 K, x1 = 0.4955 | 902.1 | 1197.8 | –
308.15 K, x1 = 0.5478 | 907.85 | 1190.9 | –
308.15 K, x1 = 0.6058 | 914.21 | 1183.1 | –
308.15 K, x1 = 0.657 | 919.84 | 1176.5 | –
308.15 K, x1 = 0.6936 | 923.87 | 1171.9 | –
308.15 K, x1 = 0.7468 | 929.74 | 1165.2 | –
308.15 K, x1 = 0.8022 | 935.86 | 1158.4 | –
308.15 K, x1 = 0.9035 | 947.12 | 1146.5 | –
